Assay results taken from article PMC4522657, “Identification of a DYRK1A Inhibitor that Induces Degradation of the Target Kinase using Co-chaperone CDC37 fused with Luciferase nanoKAZ” (Scientific Reports, 2015).

Columns and labels:
Experiment in all cases: Kinase panel, CaNDY 1 µM
Type in all cases: biochemical
Settings in all cases: CaNDY 1 µM relative to DMSO
EPHA7 = molecular target: T1, EPHA7 (Homo sapiens, UniProt Q15375)
T1 construct: purchased Carna Biosciences
How it was run: (§1)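 Off-chip mobility shift read-out: electrophoretic separation of substrate and phosphorylated product after 1 h at RT. Enzymes were N-terminally GST-tagged full-length human proteins made in baculovirus. Percent inhibition came from P/(P+S) relative to a no-compound control, at 1% DMSO final.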

DCAMKL2 = molecular target: T2, DCAMKL2 (Homo sapiens, UniProt Q8N568)
T2 construct: purchased Carna Biosciences
How it was run: as §1

MARK3 = molecular target: T3, MARK3 (Homo sapiens, UniProt P27448)
T3 construct: purchased Carna Biosciences
How it was run: as §1

NEK4 = molecular target: T4, NEK4 (Homo sapiens, UniProt P51957)
T4 construct: purchased Carna Biosciences
How it was run: as §1

PAK2 = molecular target: T5, PAK2 (Homo sapiens, UniProt Q13177)
T5 construct: purchased Carna Biosciences
How it was run: as §1

WNK1 = molecular target: T6, WNK1 (Homo sapiens, UniProt Q9H4A3)
T6 construct: purchased Carna Biosciences
How it was run: as §1

FGFR4(V550E) = molecular target: T7, FGFR4(V550E) (Homo sapiens, UniProt P22455, V550E)
T7 construct: purchased Carna Biosciences
How it was run: as §1

MELK = molecular target: T8, MELK (Homo sapiens, UniProt Q14680)
T8 construct: purchased Carna Biosciences
How it was run: as §1

PKD1 = molecular target: T9, PKD1 (Homo sapiens, UniProt Q15139)
T9 construct: purchased Carna Biosciences
How it was run: as §1

PKD3 = molecular target: T10, PKD3 (Homo sapiens, UniProt O94806)
T10 construct: purchased Carna Biosciences
How it was run: as §1

PKCι = molecular target: T11, PKCι (Homo sapiens, UniProt P41743)
T11 construct: purchased Carna Biosciences
How it was run: as §1

GSK3β = molecular target: T12, GSK3β (Homo sapiens, UniProt P49841)
T12 construct: purchased Carna Biosciences
How it was run: as §1

ITK = molecular target: T13, ITK (Homo sapiens, UniProt Q08881)
T13 construct: purchased Carna Biosciences
How it was run: as §1

BRSK1 = molecular target: T14, BRSK1 (Homo sapiens, UniProt Q8TDC3)
T14 construct: purchased Carna Biosciences
How it was run: as §1

PKCδ = molecular target: T15, PKCδ (Homo sapiens, UniProt Q05655)
T15 construct: purchased Carna Biosciences
How it was run: as §1

p38α = molecular target: T16, p38α (Homo sapiens, UniProt Q16539)
T16 construct: purchased Carna Biosciences
How it was run: as §1

EPHA1 = molecular target: T17, EPHA1 (Homo sapiens, UniProt P21709)
T17 construct: purchased Carna Biosciences
How it was run: as §1

RET(G691S) = molecular target: T18, RET(G691S) (Homo sapiens, UniProt P07949, G691S)
T18 construct: purchased Carna Biosciences
How it was run: as §1

EEF2K = molecular target: T19, EEF2K (Homo sapiens, UniProt O00418)
T19 construct: purchased Carna Biosciences
How it was run: as §1

SRPK2 = molecular target: T20, SRPK2 (Homo sapiens, UniProt P78362)
T20 construct: purchased Carna Biosciences
How it was run: as §1

MST4 = molecular target: T21, MST4 (Homo sapiens, UniProt Q9P289)
T21 construct: purchased Carna Biosciences
How it was run: as §1

CHK1 = molecular target: T22, CHK1 (Homo sapiens, UniProt O14757)
T22 construct: purchased Carna Biosciences
How it was run: as §1

MINK = molecular target: T23, MINK (Homo sapiens, UniProt Q8N4C8)
T23 construct: purchased Carna Biosciences
How it was run: as §1

p70S6Kβ = molecular target: T24, p70S6Kβ (Homo sapiens, UniProt Q9UBS0)
T24 construct: purchased Carna Biosciences
How it was run: as §1

skMLCK = molecular target: T25, skMLCK (Homo sapiens, UniProt Q9H1R3)
T25 construct: purchased Carna Biosciences
How it was run: as §1

MAP4K2 = molecular target: T26, MAP4K2 (Homo sapiens, UniProt Q12851)
T26 construct: purchased Carna Biosciences
How it was run: as §1

HCK = molecular target: T27, HCK (Homo sapiens, UniProt P08631)
T27 construct: purchased Carna Biosciences
How it was run: as §1

PAK3 = molecular target: T28, PAK3 (Homo sapiens, UniProt O75914)
T28 construct: purchased Carna Biosciences
How it was run: as §1

ROCK1 = molecular target: T29, ROCK1 (Homo sapiens, UniProt Q13464)
T29 construct: purchased Carna Biosciences
How it was run: as §1

MAP2K1_Cascade = molecular target: T30, MAP2K1_Cascade (Homo sapiens, UniProt Q02750)
T30 construct: purchased Carna Biosciences
How it was run: as §1

PKCη = molecular target: T31, PKCη (Homo sapiens, UniProt P24723)
T31 construct: purchased Carna Biosciences
How it was run: as §1

CaMK4 = molecular target: T32, CaMK4 (Homo sapiens, UniProt Q16566)
T32 construct: purchased Carna Biosciences
How it was run: as §1

KIT(T670I) = molecular target: T33, KIT(T670I) (Homo sapiens, UniProt P10721, T670I)
T33 construct: purchased Carna Biosciences
How it was run: as §1

QIK = molecular target: T34, QIK (Homo sapiens, UniProt Q9H0K1)
T34 construct: purchased Carna Biosciences
How it was run: as §1

ALK = molecular target: T35, ALK (Homo sapiens, UniProt Q9UM73)
T35 construct: purchased Carna Biosciences
How it was run: as §1

NPM1-ALK = molecular target: T36, NPM1-ALK (Homo sapiens, UniProt P06748+Q9UM73)
T36 construct: purchased Carna Biosciences
How it was run: as §1

T14 sequence (Q8TDC3 whole entry): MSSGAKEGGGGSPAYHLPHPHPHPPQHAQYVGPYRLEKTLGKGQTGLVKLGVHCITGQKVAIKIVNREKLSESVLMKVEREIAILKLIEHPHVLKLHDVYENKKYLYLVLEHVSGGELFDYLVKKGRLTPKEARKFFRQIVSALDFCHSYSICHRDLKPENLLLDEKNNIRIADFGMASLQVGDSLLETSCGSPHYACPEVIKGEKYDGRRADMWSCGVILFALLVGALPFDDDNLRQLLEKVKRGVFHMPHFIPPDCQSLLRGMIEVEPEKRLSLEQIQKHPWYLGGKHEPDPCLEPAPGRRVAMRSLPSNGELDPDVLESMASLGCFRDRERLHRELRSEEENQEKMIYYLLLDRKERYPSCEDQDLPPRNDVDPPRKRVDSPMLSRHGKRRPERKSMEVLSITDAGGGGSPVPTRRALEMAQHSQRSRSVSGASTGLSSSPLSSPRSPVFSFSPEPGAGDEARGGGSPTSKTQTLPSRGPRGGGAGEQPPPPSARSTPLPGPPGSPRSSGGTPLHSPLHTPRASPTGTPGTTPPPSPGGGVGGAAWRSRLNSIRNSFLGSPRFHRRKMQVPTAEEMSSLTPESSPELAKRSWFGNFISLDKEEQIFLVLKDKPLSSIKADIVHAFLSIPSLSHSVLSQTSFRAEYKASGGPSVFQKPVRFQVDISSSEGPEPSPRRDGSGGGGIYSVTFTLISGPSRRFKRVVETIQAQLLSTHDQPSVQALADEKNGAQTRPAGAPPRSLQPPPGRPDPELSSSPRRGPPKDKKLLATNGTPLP
T2 sequence (Q8N568 whole entry): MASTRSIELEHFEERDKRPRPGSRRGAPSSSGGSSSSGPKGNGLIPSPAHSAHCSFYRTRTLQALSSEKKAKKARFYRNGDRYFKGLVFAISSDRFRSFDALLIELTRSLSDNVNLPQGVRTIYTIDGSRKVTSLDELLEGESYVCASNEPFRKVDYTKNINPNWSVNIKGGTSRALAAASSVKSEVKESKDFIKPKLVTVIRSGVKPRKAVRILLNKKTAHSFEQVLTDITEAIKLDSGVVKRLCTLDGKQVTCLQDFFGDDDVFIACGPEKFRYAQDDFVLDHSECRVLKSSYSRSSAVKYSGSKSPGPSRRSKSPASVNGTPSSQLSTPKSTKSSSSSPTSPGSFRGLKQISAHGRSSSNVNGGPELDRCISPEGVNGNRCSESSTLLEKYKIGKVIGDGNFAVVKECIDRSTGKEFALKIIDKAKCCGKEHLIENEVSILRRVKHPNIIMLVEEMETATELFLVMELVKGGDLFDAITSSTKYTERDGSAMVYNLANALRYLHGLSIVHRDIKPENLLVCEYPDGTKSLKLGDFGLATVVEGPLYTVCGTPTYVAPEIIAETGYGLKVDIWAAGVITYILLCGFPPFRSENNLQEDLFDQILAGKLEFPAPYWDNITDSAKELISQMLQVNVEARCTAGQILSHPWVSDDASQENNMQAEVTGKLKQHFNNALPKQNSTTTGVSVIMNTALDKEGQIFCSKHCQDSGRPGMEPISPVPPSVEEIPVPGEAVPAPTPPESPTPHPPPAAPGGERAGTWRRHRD
T32 sequence (Q16566 whole entry): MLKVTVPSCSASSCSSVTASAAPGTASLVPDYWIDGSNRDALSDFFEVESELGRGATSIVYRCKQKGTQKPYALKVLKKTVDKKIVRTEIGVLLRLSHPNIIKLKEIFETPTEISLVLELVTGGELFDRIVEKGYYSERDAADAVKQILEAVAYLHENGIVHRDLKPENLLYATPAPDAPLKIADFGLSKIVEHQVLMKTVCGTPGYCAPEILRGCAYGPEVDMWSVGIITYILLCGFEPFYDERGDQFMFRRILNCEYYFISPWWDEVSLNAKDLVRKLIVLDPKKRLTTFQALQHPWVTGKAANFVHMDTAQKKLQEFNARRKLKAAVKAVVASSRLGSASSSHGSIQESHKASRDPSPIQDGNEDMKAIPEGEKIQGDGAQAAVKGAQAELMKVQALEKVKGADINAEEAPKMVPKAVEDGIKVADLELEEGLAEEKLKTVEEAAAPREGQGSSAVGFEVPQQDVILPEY
T17 sequence (P21709 26-976): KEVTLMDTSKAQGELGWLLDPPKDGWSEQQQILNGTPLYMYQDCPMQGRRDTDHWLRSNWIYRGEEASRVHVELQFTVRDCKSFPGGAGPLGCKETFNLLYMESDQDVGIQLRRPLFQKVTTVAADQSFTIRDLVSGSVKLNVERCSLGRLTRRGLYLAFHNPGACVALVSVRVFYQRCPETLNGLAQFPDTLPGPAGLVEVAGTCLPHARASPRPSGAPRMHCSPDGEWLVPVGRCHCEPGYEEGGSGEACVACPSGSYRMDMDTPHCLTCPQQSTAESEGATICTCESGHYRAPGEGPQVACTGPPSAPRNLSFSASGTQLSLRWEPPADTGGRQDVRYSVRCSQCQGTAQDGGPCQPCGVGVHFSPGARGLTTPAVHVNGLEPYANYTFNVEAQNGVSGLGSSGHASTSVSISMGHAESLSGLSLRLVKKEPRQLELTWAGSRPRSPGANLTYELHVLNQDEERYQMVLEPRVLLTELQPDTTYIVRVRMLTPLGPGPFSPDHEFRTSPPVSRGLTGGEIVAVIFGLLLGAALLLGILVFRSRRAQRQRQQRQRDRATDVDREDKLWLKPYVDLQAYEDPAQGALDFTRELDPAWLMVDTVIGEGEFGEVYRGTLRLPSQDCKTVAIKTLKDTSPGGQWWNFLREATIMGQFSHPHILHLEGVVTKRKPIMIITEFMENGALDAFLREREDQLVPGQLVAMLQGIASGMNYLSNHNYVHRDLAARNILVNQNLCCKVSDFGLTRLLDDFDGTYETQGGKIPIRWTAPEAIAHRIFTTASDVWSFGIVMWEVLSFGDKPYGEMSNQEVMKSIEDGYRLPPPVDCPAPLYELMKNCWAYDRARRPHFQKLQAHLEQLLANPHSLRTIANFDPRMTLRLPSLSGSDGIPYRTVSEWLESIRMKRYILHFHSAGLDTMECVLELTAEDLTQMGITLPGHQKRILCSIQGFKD
T34 sequence (Q9H0K1 whole entry): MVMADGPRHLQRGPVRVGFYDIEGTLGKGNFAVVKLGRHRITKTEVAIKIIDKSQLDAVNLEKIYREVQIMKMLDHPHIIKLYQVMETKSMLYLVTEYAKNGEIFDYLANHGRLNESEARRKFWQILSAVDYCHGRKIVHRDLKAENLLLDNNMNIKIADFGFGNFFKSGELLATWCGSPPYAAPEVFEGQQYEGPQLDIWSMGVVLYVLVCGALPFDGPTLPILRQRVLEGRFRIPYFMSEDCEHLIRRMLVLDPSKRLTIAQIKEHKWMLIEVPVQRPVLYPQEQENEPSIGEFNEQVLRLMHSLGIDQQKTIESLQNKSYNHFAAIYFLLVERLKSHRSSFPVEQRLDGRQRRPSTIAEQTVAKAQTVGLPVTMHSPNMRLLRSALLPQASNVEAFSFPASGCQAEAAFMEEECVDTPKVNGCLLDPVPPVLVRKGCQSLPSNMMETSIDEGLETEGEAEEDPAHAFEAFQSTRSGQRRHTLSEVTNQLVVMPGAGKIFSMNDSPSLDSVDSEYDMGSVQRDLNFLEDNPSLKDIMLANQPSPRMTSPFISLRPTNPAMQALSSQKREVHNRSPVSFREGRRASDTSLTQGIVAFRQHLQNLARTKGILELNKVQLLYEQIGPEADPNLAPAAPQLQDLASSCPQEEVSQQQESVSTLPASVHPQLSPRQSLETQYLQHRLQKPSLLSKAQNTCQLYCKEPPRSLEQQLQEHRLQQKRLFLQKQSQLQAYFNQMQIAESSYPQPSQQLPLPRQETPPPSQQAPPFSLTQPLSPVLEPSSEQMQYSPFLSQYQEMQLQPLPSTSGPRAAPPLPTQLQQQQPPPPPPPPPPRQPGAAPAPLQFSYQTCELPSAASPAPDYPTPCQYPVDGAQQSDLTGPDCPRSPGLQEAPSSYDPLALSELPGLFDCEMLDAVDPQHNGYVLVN
T33 sequence (P10721 26-976 T670I): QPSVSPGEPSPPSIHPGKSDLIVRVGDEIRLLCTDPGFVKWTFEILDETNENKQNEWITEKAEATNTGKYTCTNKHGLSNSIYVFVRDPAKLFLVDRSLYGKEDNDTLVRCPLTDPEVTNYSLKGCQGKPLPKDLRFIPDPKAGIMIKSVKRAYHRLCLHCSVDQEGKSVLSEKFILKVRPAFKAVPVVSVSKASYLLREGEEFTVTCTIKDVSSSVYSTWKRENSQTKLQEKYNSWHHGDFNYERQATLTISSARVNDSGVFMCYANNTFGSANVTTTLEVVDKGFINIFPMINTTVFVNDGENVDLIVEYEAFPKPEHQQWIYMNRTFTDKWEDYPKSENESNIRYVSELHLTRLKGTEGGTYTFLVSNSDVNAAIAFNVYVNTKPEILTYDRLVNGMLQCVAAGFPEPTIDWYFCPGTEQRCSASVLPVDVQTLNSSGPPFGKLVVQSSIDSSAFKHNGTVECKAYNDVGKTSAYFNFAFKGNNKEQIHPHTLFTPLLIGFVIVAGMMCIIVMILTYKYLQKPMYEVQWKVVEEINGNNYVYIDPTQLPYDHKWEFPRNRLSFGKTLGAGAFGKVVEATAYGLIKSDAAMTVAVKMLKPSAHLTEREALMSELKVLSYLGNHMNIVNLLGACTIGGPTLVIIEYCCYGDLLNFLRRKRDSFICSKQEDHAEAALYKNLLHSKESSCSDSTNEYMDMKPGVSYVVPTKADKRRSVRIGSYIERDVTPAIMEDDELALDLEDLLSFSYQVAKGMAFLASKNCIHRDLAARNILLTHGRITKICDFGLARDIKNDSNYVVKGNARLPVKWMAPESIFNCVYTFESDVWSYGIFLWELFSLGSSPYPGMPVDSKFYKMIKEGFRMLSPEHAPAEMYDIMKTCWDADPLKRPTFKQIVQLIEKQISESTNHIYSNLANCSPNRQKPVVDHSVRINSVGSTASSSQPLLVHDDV

Structure (SMILES): [H]/N=C1/NC(=O)C(=Cc2ccc3c(c2)CCO3)S1 [CaNDY, (Z)-5-[(2,3-dihydrobenzofuran-5-yl)methylene]-2-iminothiazolidin-4-one]
- remaining activity at 1 µM (EPHA7): 97.6%
- remaining activity at 1 µM (DCAMKL2): 102%
- remaining activity at 1 µM (MARK3): 95%
- remaining activity at 1 µM (NEK4): 86.2%
- remaining activity at 1 µM (PAK2): 101%
- %Activity (WNK1): 98.8%
- remaining activity at 1 µM (FGFR4(V550E)): 102%
- remaining activity at 1 µM (MELK): 91.5%
- remaining activity at 1 µM (PKD1): 72.9%
- remaining activity at 1 µM (PKD3): 85.9%
- remaining activity at 1 µM (PKCι): 101%
- remaining activity at 1 µM (GSK3β): 74.1%
- %Activity (ITK): 99.9%
- remaining activity at 1 µM (BRSK1): 97.3%
- remaining activity at 1 µM (PKCδ): 74.1%
- %Activity (p38α): 95.9%
- remaining activity at 1 µM (EPHA1): 95.5%
- remaining activity at 1 µM (RET(G691S)): 102%
- remaining activity at 1 µM (EEF2K): 97.2%
- remaining activity at 1 µM (SRPK2): 96.6%
- remaining activity at 1 µM (MST4): 103%
- %Activity (CHK1): 93.5%
- remaining activity at 1 µM (MINK): 83.7%
- remaining activity at 1 µM (p70S6Kβ): 88.9%
- remaining activity at 1 µM (skMLCK): 96.2%
- remaining activity at 1 µM (MAP4K2): 76.7%
- remaining activity at 1 µM (HCK): 95.5%
- remaining activity at 1 µM (PAK3): 109%
- remaining activity at 1 µM (ROCK1): 92.5%
- remaining activity at 1 µM (MAP2K1_Cascade): 99.3%
- remaining activity at 1 µM (PKCη): 92.8%
- remaining activity at 1 µM (CaMK4): 103%
- remaining activity at 1 µM (KIT(T670I)): 96.6%
- remaining activity at 1 µM (QIK): 99.5%
- remaining activity at 1 µM (ALK): 98.7%
- remaining activity at 1 µM (NPM1-ALK): 97.8%
